Results as given in ChEMBL document CHEMBL2321714, “Novel Aza-resveratrol analogs: synthesis, characterization and anticancer activity against breast cancer cell lines” (Bioorg Med Chem Lett, 2013).
Active and inactive are the calls of the source. The calls are words filed in the database; no cut-off is given here.

Assays:
T47D [1] = test: Cytotoxicity against human T47D cells by MTT assay; type: functional, cell-based
MCF-10A = test: Cytotoxicity against human MCF10A cells at 50 uM by MTT assay; type: cell-based
T47D [2] = test: Induction of autophagy in human T47D cells assessed as increase in Beclin-1 expression at 50 uM after 12 hrs by Western blot analysis; type: functional, cell-based
MDA-MB-231 [3] = test: Induction of autophagy in human MDA-MB-231 cells assessed as increase in Beclin-1 expression at 50 uM after 12 hrs by Western blot analysis; type: functional, cell-based
MDA-MB-231 [4] = test: Cytotoxicity against human MDA-MB-231 cells at 50 uM by MTT assay; type: functional
MDA-MB-231 [5] = test: Cytotoxicity against human MDA-MB-231 cells by MTT assay; type: functional, cell-based
T47D [6] = test: Cytotoxicity against human T47D cells at 50 uM by MTT assay; type: functional

Cc1ccc(/N=C/c2ccc(O)c(O)c2)cc1
IC50 (T47D [1]): 32 µM
Activity (MCF-10A): Non-toxic
Activity (T47D [2]): Active
Activity (MDA-MB-231 [3]): Active
Activity (MDA-MB-231 [4]): 65%
IC50 (MDA-MB-231 [5]): 21 µM
Activity (T47D [6]): 40%

Oc1ccc(/C=N/c2ccc(F)cc2)cc1O
Activity (MCF-10A): Non-toxic
Activity (MDA-MB-231 [4]): Active
Activity (T47D [6]): Active

COc1ccc(/N=C/c2ccc(O)c(O)c2)cc1
Activity (MCF-10A): Non-toxic
Activity (MDA-MB-231 [4]): Active
Activity (T47D [6]): Active

Oc1ccc(/C=C/c2cc(O)cc(O)c2)cc1 [RESVERATROL]
IC50 (T47D [1]): 76 µM
Activity (MDA-MB-231 [4]): 40%
IC50 (MDA-MB-231 [5]): 66 µM
Activity (T47D [6]): 40%

Oc1ccc(/C=N/c2ccc(Cl)cc2)cc1O
Activity (MCF-10A): Non-toxic
Activity (MDA-MB-231 [4]): Active
Activity (T47D [6]): Active

Oc1ccc(/N=C/c2ccc(O)c(O)c2)cc1
IC50 (T47D [1]): 44 µM
Activity (MCF-10A): Non-toxic
Activity (T47D [2]): Active
Activity (MDA-MB-231 [3]): Active
Activity (MDA-MB-231 [4]): 65%
IC50 (MDA-MB-231 [5]): 29 µM
Activity (T47D [6]): 40%

Oc1ccc(/C=N/c2ccc3[nH]ccc3c2)cc1O
Activity (MCF-10A): Non-toxic
Activity (MDA-MB-231 [4]): inactive
Activity (T47D [6]): 40%
